# Results: BindingDB's records for patent US10188615 (ACUCELA INC., 2019)
# Target: T1, Retinoid isomerohydrolase (Human, UniProt Q16518)
# T1 sequence (Q16518 whole entry): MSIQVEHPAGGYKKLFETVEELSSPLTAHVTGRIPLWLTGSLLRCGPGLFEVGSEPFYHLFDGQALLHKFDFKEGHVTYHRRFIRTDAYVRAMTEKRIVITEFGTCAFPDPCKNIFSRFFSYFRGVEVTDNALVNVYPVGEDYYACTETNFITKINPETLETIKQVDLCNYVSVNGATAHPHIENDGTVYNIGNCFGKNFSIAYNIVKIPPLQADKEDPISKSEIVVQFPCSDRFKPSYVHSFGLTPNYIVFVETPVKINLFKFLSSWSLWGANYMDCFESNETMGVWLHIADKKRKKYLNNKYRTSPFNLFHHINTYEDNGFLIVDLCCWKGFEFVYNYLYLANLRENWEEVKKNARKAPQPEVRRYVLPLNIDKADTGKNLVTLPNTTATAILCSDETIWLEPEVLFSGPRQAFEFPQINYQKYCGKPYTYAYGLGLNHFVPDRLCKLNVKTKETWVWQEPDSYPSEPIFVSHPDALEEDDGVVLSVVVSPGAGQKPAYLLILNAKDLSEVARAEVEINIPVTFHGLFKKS
# Experiment: In Vitro Isomerase Inhibition Assay
row,Structure (SMILES),IC50
1,"NCCSc1cccc(OCC2CCCCC2)c1 [US10188615, Example 123]",in the range around 55 nM
2,"NCC[S+]([O-])c1cccc(OCC2CCCCC2)c1 (centres undefined) [US10188615, Example 124]",in the range around 550 nM
3,"NCCS(=O)(=O)c1cccc(OCC2CCCCC2)c1 [US10188615, Example 125]",in the range around 550 nM
4,"NCC/C(=N\N)c1cccc(OCC2CCCCC2)c1 [US10188615, Example 126]",in the range around 550 nM
5,"NCC(O)c1cccc(OCC2CCCCC2)c1 (centres undefined) [US10188615, Example 127]",in the range around 550 nM
6,"CN(CCN)c1cccc(OCC2CCCCC2)c1 [US10188615, Example 128]",in the range around 5500 nM
7,"NCCNc1cccc(OCC2CCCCC2)c1 [US10188615, Example 129]",in the range around 550 nM
8,"N=C(N)CC(O)c1cccc(OCC2CCCCC2)c1 (centres undefined) [US10188615, Example 130]",in the range around 55 nM
9,"NCCC(O)c1cccc(OCCCOCc2ccccc2)c1 (centres undefined) [US10188615, Example 131]",in the range around 55 nM
10,"CNC(=O)CCCOc1cccc(OCCN)c1 [US10188615, Example 133]",in the range around 5500 nM
11,"NCCOc1cccc(OCCCCCOCc2ccccc2)c1 [US10188615, Example 134]",in the range around 5500 nM
12,"NCCCc1cccc(OCC2(O)CCCCCCC2)c1 [US10188615, Example 135]",in the range around 550 nM
13,"NCCCc1cccc(OCCCCCOCc2ccccc2)c1 [US10188615, Example 136]",in the range around 5500 nM
14,"Cc1cccc(C)c1COc1cccc(CCCN)c1 [US10188615, Example 137]",in the range around 5500 nM
15,"CN(C)C(=O)CCCOc1cccc(OCCN)c1 [US10188615, Example 138]",in the range around 5500 nM
16,"NCCOc1cccc(OCC2(O)CCCCCCC2)c1 [US10188615, Example 139]",in the range around 550 nM
17,"Cc1cccc(C)c1COc1cccc(OCCN)c1 [US10188615, Example 140]",in the range around 550 nM
18,"NCCCc1cc(CO)cc(OCC2CCCCC2)c1 [US10188615, Example 142]",in the range around 5500 nM

row,Structure (SMILES),IC50
1,"NCCOc1cccc(OCCCCCO)c1 [US10188615, Example 143]",in the range around 550 nM
2,"NCCOc1cccc(OCCCC(N)=O)c1 [US10188615, Example 144]",in the range around 5500 nM
3,"NCCOc1cccc(OCC(O)c2ccccc2)c1 (centres undefined) [US10188615, Example 145]",in the range around 5500 nM
4,"NCCC(O)c1cc(OCC2CCCCC2)ccc1Br (centres undefined) [US10188615, Example 146]",in the range around 5500 nM
5,"NCCC(O)c1cccc(OCCCC(N)=O)c1 (centres undefined) [US10188615, Example 149]",in the range around 5500 nM
6,"NCCCc1cccc(OCC(O)c2ccccc2)c1 (centres undefined) [US10188615, Example 150]",in the range around 550 nM
7,"NCCCc1cccc(OCCCCCO)c1 [US10188615, Example 151]",in the range around 550 nM
8,"CC(C)C(O)COc1cccc(CCCN)c1 (centres undefined) [US10188615, Example 152]",in the range around 550 nM
9,"CC(C)C(O)COc1cccc(OCCN)c1 (centres undefined) [US10188615, Example 153]",in the range around 550 nM
10,"Cc1cc(OCCN)cc(OCC2CCCCC2)c1 [US10188615, Example 154]",in the range around 55 nM
11,"NCCOc1cccc(OCCCCO)c1 [US10188615, Example 156]",in the range around 550 nM
12,"CN(C)C(=O)CCCOc1cccc(C(O)CCN)c1 (centres undefined) [US10188615, Example 157]",in the range around 550 nM
13,"CC(C)C(O)COc1cccc(C(O)CCN)c1 (centres undefined) [US10188615, Example 158]",in the range around 55 nM
14,"CCCC(O)COc1cccc(OCCN)c1 (centres undefined) [US10188615, Example 159]",in the range around 5500 nM
15,"Cc1ccc(OCC2CCCCC2)cc1OCCN [US10188615, Example 160]",in the range around 5500 nM
16,"NCCC(O)c1cccc(OCC(O)c2ccccc2)c1 (centres undefined) [US10188615, Example 161]",in the range around 55 nM
17,"NCCCc1cccc(OCC2CCCCO2)c1 (centres undefined) [US10188615, Example 162]",in the range around 550 nM
18,"CCCC(O)COc1cccc(C(O)CCN)c1 (centres undefined) [US10188615, Example 163]",in the range around 55 nM

# More lines, now with the values ahead:
row,IC50,Structure (SMILES)
1,in the range around 550 nM,"Cc1c(OCCN)cccc1OCC1CCCCC1 [US10188615, Example 164]"
2,in the range around 550 nM,"NCCC(O)c1cccc(OCCCCO)c1 (centres undefined) [US10188615, Example 165]"
3,in the range around 55 nM,"NCCC(O)c1cccc(OCCCCCO)c1 (centres undefined) [US10188615, Example 166]"
4,in the range around 550 nM,"CCCC(O)COc1cccc(CCCN)c1 (centres undefined) [US10188615, Example 167]"
5,in the range around 550 nM,"NCCCc1cc(F)cc(OCC2CCCCC2)c1 [US10188615, Example 168]"
6,in the range around 55 nM,"CC(=O)O[C@@H]1CCCC[C@H]1COc1cccc([C@H](O)CCN)c1 [US10188615, Example 173]"
7,in the range around 55 nM,"CC(=O)O[C@@H]1CCCC[C@@H]1COc1cccc([C@H](O)CCN)c1 [US10188615, Example 174]"
8,100 to 1000 nM,"NC[C@H](O)[C@@H](O)c1cccc(OCC2CCCCC2)c1 [US10188615, Example 177]"
9,in the range around 55 nM,"NCC[C@@H](O)c1cc(O)cc(OCC2CCCCC2)c1 [US10188615, Example 179]"
10,in the range around 55 nM,"NC[C@@H](O)[C@@H](O)c1cccc(OCC2CCCCC2)c1 [US10188615, Example 180]"
11,in the range around 550 nM,"CNCCC(=O)c1cccc(OCC2CCCCC2)c1 [US10188615, Example 181]"
12,in the range around 5500 nM,"NCCCCc1cccc(OCC2CCCCC2)c1 [US10188615, Example 184]"
13,in the range around 55 nM,"CNCCC(O)c1cccc(OCC2CCCCC2)c1 (centres undefined) [US10188615, Example 187]"
14,in the range around 5500 nM,"N=C(N)NCc1cccc(OCC2CCCCC2)c1 [US10188615, Example 190]"
15,in the range around 55 nM,"NCCC(F)c1cccc(OCC2CCCCC2)c1 (centres undefined) [US10188615, Example 193]"
16,in the range around 5500 nM,"NCCC#Cc1cccc(OCC2CCCCC2)c1 [US10188615, Example 196]"
17,in the range around 55 nM,"NCC#Cc1cccc(OCC2CCCCC2)c1 [US10188615, Example 197]"
18,in the range around 550 nM,"NC/C=C/c1cc(F)cc(OCC2CCCCC2)c1 [US10188615, Example 198]"
